From patent US7482318B2, “Protein kinase domain of the large subunit of herpes simplex type 2 ribonucleotide reductase (icp 10pk) has anti-apoptotic activity” (priority 2000, dated 2009)
Like-named read-outs stand apart in the source and are kept apart here.

Tests used:
chromosomal DNA = assay: DNA fragmentation assay (agarose gel DNA ladder); type: cell-based, human; settings: 24 hours post-treatment
Procedure: (§1) Apoptosis was induced in HEI293 and JHLA1 cells using staurosporine (STS; Calbiochem, San Diego, Calif.) and D-manritol (D-Mann; Sigma, St. Louis, Mo.). Cells were plated in 6-well plates on glass coverslips or in flasks and allowed to grow for 24 hours at 37° C. in DMEM with 10% FBS, 1 mM sodium pyruvate, 0.1 mM non-essential amino acids, and antibiotics. At 24 hours after plating, media was removed by aspiration, and appropriate dilutions of apoptotic inducers (STS 250 nM, D-Mann 300 mM) were added to the cells for various times indicated in the text. All dilutions were made in cell growth media described above containing 1% FBS. At the indicated times after treatment, cells were processed for TUNEL or harvested for DNA extraction or Western blot assay.
HEK293, JHLA1 and JHL15 cells treated or not treated with apoptotic inducers were collected by gentle scraping at 24 hours post-treatment/infection. DNA was extracted using Puregene DNA Isolation Kit (Gentra Systems, Minneapolis, Minn.) according to the manufacturer's instructions. After spectrophotometrical quantitation, 5-10 micrograms of DNA per samples was separated on a 1.5% agarose gel stained with 0.1 microgram/ml ethidium bromide. Fragmented DNA was visualized by exposure to UV light and photographed using a Polaroid MP-4 land camera.
To determine whether ICP10PK blocks DNA fragmentation induced by STS and D-Mann, treated cells were analyzed using a DNA fragmentation assay which detects degradation of chromosomal DNA into oligonucleosomal fragments.

HEK293 cells = assay: TUNEL assay of apoptosis inducers in HEK293 cells; type: cell-based, human; settings: 24 hours with 250 nM STS or 300 nM D-Mann, ±SEM, three experiments
Procedure: (§2) Vero (African green monkey kidney cells) were obtained from ATCC and grown in Minimum Essential Medium (MEM) with 10% fetal bovine serum (FBS) and antibiotics. HEK293 (human embryonic kidney) cells were grown in Dulbecco's Modified Eagle's Medium (DMEM) with 10% FBS, 1 mM sodium pyruvate, 0.1 mM non-essential amino acids, and antibiotics. The cell line JHLA1 was established from HEK293 cells by transfection with an ICP10 expression vector and clone selection with G418, and the cell line JHL15 was similarly constructed using a vector which expresses the transmembrane deleted mutant of ICP10, p139™, which is PK negative, as described (Smith et al. 1994, Virology, 200:598-612).
(§3) Apoptosis was induced in HEI293 and JHLA1 cells using staurosporine (STS; Calbiochem, San Diego, Calif.) and D-manritol (D-Mann; Sigma, St. Louis, Mo.). […]
(§4) In situ analysis of apoptosis was performed using In Situ Cell Death Detection Kit (Roche Molecular Biochemicals, Indianapolis, Ind.) according to the manufacturer's instructions. […] Coverslips were mounted in PBS/glycerol, and cells were analyzed by fluorescence microscopy. […] Coverslips were mounted in PBS/glycerol and analyzed by light microscopy. Apoptotic cells (characterized by a dark precipitate) and non-apoptotic cells (diffuse, light staining) were counted in at least five randomly chose microscopic fields (containing at least 250 cells). […]

JHL15 cells = assay: TUNEL assay of apoptosis inducers in JHL15 cells (express PK negative p139TM); type: cell-based, human; settings: JHL15 cells (printed RHL15 for STS); 24 hours with 250 nM STS or 300 nM D-Mann; ±SEM
Procedure: as §2, §3, §4

JHLA1 cells = assay: TUNEL assay of apoptosis inducers in JHLA1 cells (express ICP10); type: cell-based, human; settings: JHLA1 cells (printed JHLA15); 24 hours with 250 nM STS or 300 nM D-Mann; ±SEM
Procedure: as §2, §3, §4

[1] = system: primary hippocampal cultures; type: cell-based, rat
Procedure: Briefly, minced fetal hippocampi were incubated with 0.25% trypsin for 30 minutes at 36° C. followed by dissociation of neurons in MEM supplemented with 10% FBS, 10% horse serum, 2 mM glutamine, and 20 microgram/ml DNase II, using a sterile Pasteur pipette. Neurons were plated at approximately 750,000 cells per 35 mm dish on glass coverslips pre-coated with poly-L-lysine and incubated at 36° C., 10% CO2. At 24 hours, media was replaced with MEM supplemented with 10% horse serum and 2 mM glutamine, and the cultures were returned to a 36 degrees C., 10% CO2 incubator.
In situ analysis of apoptosis was performed using In Situ Cell Death Detection Kit (Roche Molecular Biochemicals, Indianapolis, Ind.) according to the manufacturer's instructions. Briefly, infected/treated or non-infected/non-treated cells were fixed with 4% paraformaldehyde (PFA) in PBS (pH=7.4) for 30 minutes at room temperature followed by permiabilization of cells in 0.1% Triton X-100 (in 0.1% sodium citrate) for 2 minutes on ice. DNA breaks were labeled by addition of terminal deoxynucleotidyl transferase (TdT) and nucleotide mixture (containing dUTP-fluorescein conjugated) and incubation for 60 minutes at 37° C. Coverslips were mounted in PBS/glycerol, and cells were analyzed by fluorescence microscopy. After extensive washes in PBS, cells were incubated for 30 minutes at 37° C. with an anti-fluorescein antibody conjugated with alkaline phosphatase (AP). Chromogenic reaction was carried out by adding AP substrate solution (NBT/BCIP in 0.1 M Tris-HCl pH=9.5, 0.05 M MCl2, 0.1M NaCl, and 1 mM levamisole) and incubation for 10 minutes at room temperature. Coverslips were mounted in PBS/glycerol and analyzed by light microscopy. Apoptotic cells (characterized by a dark precipitate) and non-apoptotic cells (diffuse, light staining) were counted in at least five randomly chose microscopic fields (containing at least 250 cells). The percentage of mock-infected neurons undergoing apoptosis (between 4 and 5%) was subtracted from each average.
Cells were infected with 10 PFU/cell of HSV-2 or ICP10deltaPK and apoptosis was determined by TUNEL at 16 and 24 hours p.i. A total of 200-300 cells were counted in five randomly chosen microscopic fields and the mean percentage of TUNEL-positive cells was determined.

[2] = system: procaspase-3 (caspase-3p32); assay: Western blot of inactive procaspase-3 (caspase-3p32), densitometric scanning; type: cell-based, human
Procedure: as §1
(§5) Cells were collected by gentle scraping and centrifuged at 2,500 rpm for 5 minutes at 4° C. The dry pellet was stored at −80° C. until use. Cells were lysed with RIPA buffer (30 mM Tris-Hcl pH=7.4, […], 1% Nonidet P-40, 0/1% SDS, 0.5% sodium deoxycholate, 1 mM EDTA, 1 mM DTT, 2 mM MgCl2, 0.5 mM PMSF) supplemented with phosphatase and protease inhibitor cocktails (Sigma, St. Louis, Mo.) and sonicated for 1 minute at 25% output power using the Sonicator/Ultrasonic Processor (Misonix, Inc., Farmingdale, N.Y.). Total protein was determined by BCA (Pierce, Rockford, Ill.) and proteins were resolved by SDS-PAGE. Transfer of separated proteins to Schlecher and Schuell nitrocellulose membranes was performed overnight using an electroblotting apparatus. Non-specific binding was blocked by incubating blots for 1 hour at 37° C. in TN-T buffer (0.01 M Tris-Hcl pH=7.4, 0.15 M NaCl, 0.05% Tween 20) containing 1% bovine serum albumin (BSA). After washing with TN-T buffer, the blots were incubated for 2 hours at room temperature with the appropriate antibodies diluted in TN-T buffer containing 0.1% BSA. After three washes with TN-T buffer, the blots were incubated with Protein A-Peroxidase for 1 hour at room temperature. […]

PARP = assay: Western blot of PARP cleavage; type: cell-based, human; settings: STS-treated
Procedure: as §5, with “(BSA).” for “(BSA). After washing with TN-T buffer, the blots were incubated for 2 hours at room temperature with the appropriate antibodies diluted in TN-T buffer containing 0.1% BSA. After three washes with TN-T buffer, the blots were incubated with Protein A-Peroxidase for 1 hour at room temperature.”
To determine whether ICP10PK blocks PARP cleavage by caspase-3, a hallmark of caspase-3 dependent apoptosis, Western blot analysis using PARP antibody was performed on STS-treated HEK293, JHL15, and JHLA1 cells. A 116 kDa band consistent with the uncleaved PARP was detected in mock- and STS-treated cells.

caspase-3p20 = assay: Immunohistochemistry for activated caspase-3 cleavage product (caspase-3p20) in HEK293, JHL15, JHLA1 cells; type: cell-based, human; settings: STS-treated, ±SEM
Description: FIG. 3B is a graph depicting inhibition of caspase activation by ICP10PK. HEK93, JHL15, and JHLA1 cells treated with STS (as described in FIG. 3A) were stained with caspase3p20 antibody (specific for the activated caspase-3 which is the large fragment of the pro-enzyme), and cells in five randomly chosen microscopic fields were counted. Results are expressed as mean percentage of positive cells±SEM (*=p<0.01 vs. HEK294; +=p<0.01 vs. JHL15 by Student test).
Previous reports have shown that STS-induced cell death is a caspase-dependent process (Jacobson et al., 1996, J. Cell. Biol., 133:1041-1051). […] To determine whether ICP10PK inhibits cleavage of pro-caspase-3, a central determinant of many apoptotic processes, Western blot analysis was performed on cell lysates obtained from STS-treated cells. […] The densitometric units were equal to 0.7 for both STS-treated HEK293 and JHL15 cells and 1.0 and 1.1 for DMSO-treated HEK293 and JHL15 cells, respectively). The levels of caspase-3p32 were similar in STS-treated and untreated JHLA1 cells (FIG. 3A, lanes 5 and 6, respectively). In this case, the densitometric units were equal to 1.2 for both treatments.

P-MAPK1/2 = assay: Immunoblot of P-MAPK1/2 (MAPK activation) in hippocampal neurons; type: cell-based, rat; settings: 20 micromoles U0126
Procedure: Cells were lysed with RIPA buffer (30 mM Tris-Hcl pH=7.4, 0.15 mM NaCl, 1% Nonidet P-40, 0/1% SDS, 0.5% sodium deoxycholate, 1 mM EDTA, 1 mM DTT, 2 mM MgCl2, 0.5 mM PMSF) supplemented with phosphatase and protease inhibitor cocktails (Sigma, St. Louis, Mo.) and sonicated for 1 minute at 25% output power using the Sonicator/Ultrasonic Processor (Misonix, Inc., Farmingdale, N.Y.). Total protein was determined by BCA (Pierce, Rockford, Ill.) and proteins were resolved by SDS-PAGE. Transfer of separated proteins to Schlecher and Schuell nitrocellulose membranes was performed overnight using an electroblotting apparatus. Non-specific binding was blocked by incubating blots for 1 hour at 37° C. in TN-T buffer (0.01 M Tris-Hcl pH=7.4, 0.15 M NaCl, 0.05% Tween 20) containing 1% bovine serum albumin (BSA). After washing with TN-T buffer, the blots were incubated for 2 hours at room temperature with the appropriate antibodies diluted in TN-T buffer containing 0.1% BSA. After three washes with TN-T buffer, the blots were incubated with Protein A-Peroxidase for 1 hour at room temperature. […]
Culture of hippocampal neurons were infected with HSV-2 or ICP10deltaPK at 10 PFU/cell and analyzed for MAPK activation by immunoblotting with antibodies specific for the unphosphorylated (MAPK) and phosphorylated (activated) MAPK species (P-MAPK1/2). […]

OC[C@@H](O)[C@@H](O)[C@H](O)[C@H](O)CO [D-Mann, D-mannitol]
DNA fragmentation (DNA ladder pattern) (chromosomal DNA; HEK293 cells): exhibited a DNA ladder pattern characteristic of apoptosis
DNA fragmentation (DNA ladder pattern) (chromosomal DNA; JHLA1 cells): did not exhibit DNA fragmentation
percentage of apoptotic (TUNEL-positive) cells (HEK293 cells): 79±7.4%
percentage of apoptotic (TUNEL-positive) cells (JHL15 cells): 58±7%
percentage of apoptotic (TUNEL-positive) cells (JHLA1 cells): 13±8%

O=c1cc(N2CCOCC2)oc2c(-c3ccccc3)cccc12 [LY294002]
percentage of TUNEL-positive cells ([1]; HSV-2 infected cultures, 100 micromolar LY294002): 24.8±2.3
percentage of TUNEL-positive cells ([1]; mock-infected cultures, 100 micromolar LY294002 (non-treated 5±3)): 72±4.5

CN[C@@H]1C[C@H]2O[C@@](C)([C@@H]1OC)n1c3ccccc3c3c4c(c5c6ccccc6n2c5c31)C(=O)NC4 [STS, staurosporine]
levels of caspase-3p32 ([2]; HEK293 cells, STS 250 nM (DMSO control 1.0)): 0.7 densitometric units
levels of caspase-3p32 ([2]; JHL15 cells, STS 250 nM (DMSO control 1.1)): 0.7 densitometric units
levels of caspase-3p32 ([2]; JHLA1 cells, STS 250 nM (untreated 1.2)): 1.2 densitometric units
85 kDa PARP cleavage product (PARP; HEK293 cells): detected
85 kDa PARP cleavage product (PARP; JHL15 cells): detected
DNA fragmentation (DNA ladder pattern) (chromosomal DNA; HEK293 cells): exhibited a DNA ladder pattern characteristic of apoptosis
DNA fragmentation (DNA ladder pattern) (chromosomal DNA; JHLA1 cells): did not exhibit DNA fragmentation
percentage of apoptotic (TUNEL-positive) cells (HEK293 cells): 71±12.4%
percentage of apoptotic (TUNEL-positive) cells (JHL15 cells): 79±4.9%
percentage of apoptotic (TUNEL-positive) cells (JHLA1 cells): 5.8 ± 2.1%
mean percentage of cells positive for caspase-3p20 (caspase-3p20; HEK293 cells): 40.5±0.9%
mean percentage of cells positive for caspase-3p20 (caspase-3p20; JHL15 cells): 36.4±7.6%
mean percentage of cells positive for caspase-3p20 (caspase-3p20; JHLA1 cells): 9.3±0.1%

N#CC(=C(/N)Sc1ccccc1N)/C(C#N)=C(\N)Sc1ccccc1N [U0126]
percentage of TUNEL-positive (apoptotic) cells ([1]; HSV-2 infected cultures, 10 micromoles U0126): 20±1.6%
percentage of TUNEL-positive (apoptotic) cells ([1]; HSV-2 infected cultures, 20 micromoles U0126): 39.3±2.8%
P-MAPK1/2 levels vs untreated HSV-2 infected cells (P-MAPK1/2): significantly lower
